Values quoted from earlier work in US8637495B2, “Osteoarthritis diet formulations” (Nestec S.A., priority 2004, dated 2014).

Key:
[1] = tested on: human patients with OA of the knee
[2] = orally administered

radiolabel detected in exhaled CO2 [2]: 70%
retained in tissue [2]: approximately 10%
fraction non-ionized ([2]; physiologic pH of the small intestine): More than 50%
SMILES: N[C@H]1C(O)O[C@H](CO)[C@@H](O)[C@@H]1O (some centres unmarked) [glucosamine, Glucosamine]
clinical signs of OA ([1]; 1500 mg glucosamine per day, human, OA of the knee): significant improvement
long-term progression of OA ([1]; oral, two studies, patients followed for three years): efficiently inhibited
